Patent US20240115527A1, “CXCR1/CXCR2 INHIBITORS FOR USE IN TREATING MYELOFIBROSIS” (Icahn School of Medicine at Mount Sinai, priority 2020, published 2024)

Columns and labels:
Type in all cases: cell-based, human
[1] = tested on: normal CD34+ cells; assay: Hematopoietic colony formation by normal CD34+ cells with IL-8; conditions: addition of ladarixin, FIG. 5B
[2] = tested on: MF CD34+ cells; assay: Colony forming assay (CFU-GM) of cultured MF CD34+ cells with IL-8
Source text: FIGS. 5A, 5B. 5C, 5D, and 5E illustrate that a CXCR1/CXCR2 inhibitor reverses effects of IL-8 on MF CD34^+ cell colony formation. […] CFU-GM=colony-forming unit-granulocyte-macrophage. FIGS. 5B and 5C illustrate that IL-8 increased CFU-GM colony formation by MF CD34^+ cells in a dose dependent fashion and that the effects of IL-8 were inhibited by treatment with Ladx. FIG. 5B. Normal cells. FIG. 5C. MF cells. […] Con=control. IL-8 concentrations increase from left to right. […] P values were as follows: w/o Ladx: Con vs IL-8—10 ng: 0.159332; Con vs IL-8—20 ng: 0.011976; Con vs IL-8—50 ng: 0.00262; Con vs IL-8—100 ng: 0.00042; w/ 10 μM Ladx: Con vs Ladx: 0.315782; IL-8—10 ng vs plus Ladx: 0.295851; IL-8—20 ng vs plus Ladx: 0.077726; IL-8—50 ng vs plus Ladx: 0.031355; IL-8—100 ng vs plus Ladx: 0.081595.

[3] = tested on: MF CD34+, CD41+ and CD33+ cells; assay: Proliferation and lineage differentiation of MF mononuclear cells cultured with IL-8, flow cytometry; conditions: ladarixin added to IL-8 culture, FIG. 4A
Method: To evaluate the effects of IL-8 on MF CD34^+ cells proliferation and lineage differentiation, MF mononuclear cells (MNC cells) were cultured with StemSpan™ Serum-Free Expansion Medium (SFEM) containing 20 ng/ml of stem cell factor (SCF), thrombopoietin (TPO), FL-3L and IL-3 with or without 50 ng/ml of IL-8. The cells were harvested after 3 days of incubation. The proportion of hematopoietic cells belonging to specific lineages were determined using flow cytometry.

[4] = tested on: co-cultures of MF MNC and stromal cells; assay: ELISA of IL-8 and VEGF in conditioned medium of co-cultures of MF MNC and splenic stromal cells
Source text: FIGS. 6A, 6B, 6C, 6D, and 6E illustrate that a CXCR1/CXCR2 inhibitor reverses effects of IL-8 on micro-environmental cells. […] N splenic AC=normal splenic adherent cells. nBM MNC=non-adherent bone marrow mononuclear cells. MNC=mononuclear cells. […] FIGS. 6D and 6E illustrate that addition of CXCR1/CXCR2 inhibitor Ladx decreased the levels of IL-8 (FIG. 6D) and VEGF (FIG. 6E) in conditioned medium harvested from co-cultures of MF MNC and stromal cells.

C[C@@H](C(=O)NS(C)(=O)=O)c1ccc(OS(=O)(=O)C(F)(F)F)cc1 [Ladarixin, R(-)-2-[(4′-trifluoromethanesulfonyloxy)phenyl]-N-methanesulfonyl propionamide]
hematopoietic colony formation by normal CD34+ cells [1]: did not affect
effect on IL-8 increased CFU-GM colony formation by MF samples with the highest expression of CXCR1/CXCR2 ([2]; 10 μM Ladx, FIG. 5E): corrected
effect on IL-8 increased numbers of MF CFU-GM colonies ([2]; addition of ladarixin, FIG. 5C): blunted
effect on IL-8 induced change of percentage of MF CD34+, CD41+ and CD33+ cells [3]: reversed the effects of IL-8
IL-8 levels in co-cultures (conditioned medium) ([4]; FIG. 6D): decreased
VEGF levels in co-cultures (conditioned medium) ([4]; FIG. 6E): decreased
